These results are taken from patent US10201625B2, “Radiolabelled octreotate analogues as PET tracers” (IMPERIAL COLLEGE, priority 2011, dated 2019).

Like-named read-outs stand apart in the source and are kept apart here.

The target of one data set is T1, somatostatin receptor (Rattus norvegicus, UniProt P30680).
T1 construct: endogenous in cells; host or cells: AR42J pancreatic tumour cells (whole cells)
Nature of the data set: Competitive binding assay displacing [111In]-DTPA-Octreotide (OctreoScan) on AR42J tumour cells.

A short description of data set [1]: Dynamic PET imaging of AR42J tumor bearing mice. The conditions noted are these: female, BALB/c nu/nu athymic, mouse, in vivo, iv, total radioactivity; AR42J tumor, 60 min, i.v.; read-out: Tumor radiotracer uptake at 60 min by imaging. The source says: (§1) Briefly, tail veins were cannulated under general anesthesia (isofluorane).
The nature of data set [2]: Direct counting of tissue radioactivity (γ-counter), AR42J tumor. The arrangement: species or system mice. The conditions noted are these: female, BALB/c nu/nu athymic, mouse, in vivo, iv, total radioactivity; AR42J tumor, after 60 min PET scan; read-out: Tumor radiotracer uptake after 60 min by γ-counting.
Experimental: (§2) Six to eight-week old female BALB/c nu/nu athymic mice were obtained from Harlan United Kingdom Ltd (Bicester, UK). […] Tumors were established by subcutaneous. injection of 100 μl of PBS containing 1×10^6 cells. […] All samples were weighed and their radioactivity directly determined using a Cobra II Auto-gamma counter (formerly Packard Instruments Meriden CT USA) applying a decay correction. The results were expressed as a percentage of the injected dose per gram (% ID/g).
The test system of the next data set is AR42J tumor. The conditions noted are these: same tumor model; cited from earlier work.
Data set [3] concerns AR42J tumor xenografts. Nature of the data set: Dynamic PET imaging of AR42J tumor bearing mice. The conditions noted are these: mouse, in vivo; for Tumor radiotracer uptake at 60 min by imaging: iv.
From the text: as §1

In data set [4] the test system is AR42J tumor xenografts. Description: Direct counting of tissue radioactivity (γ-counter), AR42J tumor. Also noted: species or system mice. The conditions noted are these: mouse, in vivo.
Experimental: as §2
The procedure of data set [5]: The octanol/PBS partition coefficients were determined using the shake flask method. Both solvents were presaturated with each other by shaking together for 5 min. To a solution of 500 μL of both octanol and PBS was added 20 μL of radiolabelled ligand in EtOH (n=3). The solutions mixtures were shaken in a rotamixer for 5 minutes. After equilibration the mixtures were centrifuged (10 min at 13,000 rpm) to achieve good separation. Samples from each layer (25 μL) were taken and measured in a γ counter and Log D was calculated according to the formula: log D=log(cpm in octanol layer/cpm in aqueous layer). Log D values were measured using the ^18F-labelled triazole. […] The receptor affinities for [^18F]1b-6b were determined using a competitive binding assay in AR42J tumours cells with [^111In]-OctreoScan as the labeled radiotracer.

A further data set deals with sstr-2 (Homo sapiens, UniProt P30874). Description: Calcium flux FLIPR assay, agonist mode, sstr-2 expressing Chem-1 cells. For orientation: Calcium flux is commonly read through the fluorescence of an indicator in the cells.
Chain of sstr-2 (P30874 whole entry): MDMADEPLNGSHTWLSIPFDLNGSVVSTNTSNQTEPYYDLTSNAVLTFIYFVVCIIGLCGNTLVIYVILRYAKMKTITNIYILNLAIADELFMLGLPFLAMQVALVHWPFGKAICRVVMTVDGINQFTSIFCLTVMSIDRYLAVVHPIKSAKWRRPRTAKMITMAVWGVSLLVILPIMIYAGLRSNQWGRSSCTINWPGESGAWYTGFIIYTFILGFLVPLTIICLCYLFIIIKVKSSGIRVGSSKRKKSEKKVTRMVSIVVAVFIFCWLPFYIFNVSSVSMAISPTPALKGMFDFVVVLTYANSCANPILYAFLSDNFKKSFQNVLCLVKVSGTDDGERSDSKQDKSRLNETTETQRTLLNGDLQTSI
For data set [6] the following is noted: cited from earlier work.
[7] abbreviates: read-out: Alkyne analogue (a) IC50.
The mark [8] stands for this setting: [19F]-triazole, read-out: Triazole analogue (b) IC50.

T1 sequence (P30680 whole entry): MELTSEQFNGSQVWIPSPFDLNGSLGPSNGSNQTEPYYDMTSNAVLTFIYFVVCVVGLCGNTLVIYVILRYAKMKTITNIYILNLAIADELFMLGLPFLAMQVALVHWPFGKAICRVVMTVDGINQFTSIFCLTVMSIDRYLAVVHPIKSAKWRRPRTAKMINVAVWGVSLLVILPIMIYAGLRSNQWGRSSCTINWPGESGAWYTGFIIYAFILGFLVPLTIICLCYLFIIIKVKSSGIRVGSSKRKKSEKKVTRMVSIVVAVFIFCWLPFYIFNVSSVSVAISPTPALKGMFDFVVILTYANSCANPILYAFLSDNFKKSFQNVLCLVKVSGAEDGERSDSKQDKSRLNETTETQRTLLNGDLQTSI

Consider `C#CCCC(=O)NCCOCCOCCOCCOCCOCCOCCC(=O)N[C@H](Cc1ccccc1)C(=O)N[C@H]1CSSC[C@@H](C(=O)N[C@H](C(=O)O)[C@@H](C)O)NC(=O)[C@H]([C@@H](C)O)NC(=O)[C@H](CCCCN)NC(=O)[C@@H](Cc2c[nH]c3ccccc23)NC(=O)[C@H](Cc2ccc(O)cc2)NC1=O` [2a, E-PEG-TOCA], for which the half-maximal inhibitory concentration (IC50) at somatostatin receptor (setting [7]) stood at 5.1 ± 2.1 nM.
For the compound `C#CC(=O)NCC(=O)N[C@H](Cc1ccccc1)C(=O)N[C@H]1CSSC[C@@H](C(=O)N[C@H](C(=O)O)[C@@H](C)O)NC(=O)[C@H]([C@@H](C)O)NC(=O)[C@H](CCCCN)NC(=O)[C@@H](Cc2c[nH]c3ccccc23)NC(=O)[C@H](Cc2ccc(O)cc2)NC1=O` [3a, G-TOCA], on somatostatin receptor (setting [7]), the concentration for half-maximal inhibition (IC50) amounted to 1.4 ± 0.1 nM.
Still for that read-out and setting: next, `C#CCCC(=O)N[C@H](Cc1ccccc1)C(=O)N[C@H]1CSSC[C@@H](C(=O)N[C@H](C(=O)O)[C@@H](C)O)NC(=O)[C@H]([C@@H](C)O)NC(=O)[C@H](CCCCN)NC(=O)[C@@H](Cc2c[nH]c3ccccc23)NC(=O)[C@H](Cc2ccc(O)cc2)NC1=O` [4a, E-TOCA]: 1.8 ± 0.8 nM.
Same read-out and setting: next, `C#CC(=O)NCCC(=O)NCC(=O)N[C@H](Cc1ccccc1)C(=O)N[C@H]1CSSC[C@@H](C(=O)N[C@H](C(=O)O)[C@@H](C)O)NC(=O)[C@H]([C@@H](C)O)NC(=O)[C@H](CCCCN)NC(=O)[C@@H](Cc2c[nH]c3ccccc23)NC(=O)[C@H](Cc2ccc(O)cc2)NC1=O` [5a, propynoyl-β-Ala-Gly-[Tyr^3]-Octreotate]: 1 ± 0.3 nM.
Consider `C[C@@H](O)[C@H](NC(=O)[C@@H]1CSSC[C@H](NC(=O)[C@@H](Cc2ccccc2)NC(=O)CN2CCN(CC(=O)O)CCN(CC(=O)O)CCN(CC(=O)O)CC2)C(=O)N[C@@H](Cc2ccc(O)cc2)C(=O)N[C@H](Cc2c[nH]c3ccccc23)C(=O)N[C@@H](CCCCN)C(=O)N[C@@H]([C@@H](C)O)C(=O)N1)C(=O)O` [[^68Ga]DOTA-TATE, [^68Ga]-DOTATATE, metal not drawn, reference compound], for which, in data set [1], the tissue uptake per volume at 1 h was determined as 2.75 ± 0.11 %ID/mL. For the same compound, the tissue uptake at 1 h in [2] came out at 3.78 ± 0.32 %ID/g.
On to `C[C@@H](O)[C@@H]1NC(=O)[C@H](CCCCN)NC(=O)[C@@H](Cc2c[nH]c3ccccc23)NC(=O)[C@H](Cc2ccccc2)NC(=O)[C@@H](NC(=O)[C@@H](Cc2ccccc2)NC(=O)CN(CCN(CCN(CC(=O)[O-])CC(=O)O)CC(=O)[O-])CC(=O)[O-])CSSC[C@@H](C(=O)N[C@H](CO)[C@@H](C)O)NC1=O.[111In+3]` [[^111In]-DTPA-octreotide], for which the “Tumor uptake reported by Froidevaux et al.” value with AR42J tumor is given as 3.03±0.26 % ID/g.
FET-G-PEG-TOCA [1b]: the “Tumor radiotracer uptake at 60 min by imaging” value in the data set on AR42J tumor xenografts [3] (1 h) is given as 5.36 ± 0.45 % ID/ml. In the data set with AR42J tumor xenografts [4] (iv, 1 h), the “Tumor radiotracer uptake after 60 min by γ-counting” value turned out to be 8.29 ± 1.42 % ID/g. In data set [5], the pH-dependent lipophilicity (Log D) is −2.68 and the “Log D of 18F-triazole” value was −2.68.
With FET-G-TOGA [3b], in the data set on AR42J tumor xenografts [3], the “Kidney uptake in words” value is given as “highest”, the “Liver uptake in words” value is listed as “highest liver uptake”, the “Tumor uptake/localization in words” value is “highest tumor uptake” and the “Tumor radiotracer uptake at 60 min by imaging” value amounted to 11.0 ± 1.49 % ID/ml. In addition, the “Tumor radiotracer uptake after 60 min by γ-counting” value in the data set with AR42J tumor xenografts [4] stood at 17.04 ± 2.76 % ID/g. In [5], the “Log D” value was −1.82 and the “Log D of 18F-triazole” value is −1.83. The 50% inhibitory concentration (IC50) on somatostatin receptor (setting [8]) turned out to be 4 ± 1.4 nM.
As for FET-βAG-[W-c-(CTFTYC)K] [6b], the “Kidney uptake in words” value with AR42J tumor xenografts [3] was “low”. In the data set on AR42J tumor xenografts [3] (1 h), the “Tumor radiotracer uptake at 60 min by imaging” value is reported as 0.10 ± 0.05 % ID/ml. Further, on sstr-2, the “Activity/affinity on sstr-2 in words” value is recorded as “poor affinity”. Moreover, in the data set with AR42J tumor xenografts [4] (iv, 1 h), the “Tumor radiotracer uptake after 60 min by γ-counting” value was 0.22 ± 0.12 % ID/g. Besides, in data set [5], the “Log D” value is given as −1.14 and the “Log D of 18F-triazole” value is recorded as −1.14.
Take FETE-PEG-TOGA [2b]: the “Liver uptake in words” value in the data set on AR42J tumor xenografts [3] is listed as “highest liver uptake”. The “Tumor radiotracer uptake at 60 min by imaging” value with AR42J tumor xenografts [3] (1 h) came to 5.14 ± 0.40 % ID/ml. In the data set on AR42J tumor xenografts [4] (iv, 1 h), the “Tumor radiotracer uptake after 60 min by γ-counting” value turned out to be 9.78 ± 2.57 % ID/g. Besides, in data set [5], the “Log D” value is −2.77 and the “Log D of 18F-triazole” value was −2.77. In addition, at somatostatin receptor (setting [8]), the half-inhibitory concentration (IC50) was 13.2 ± 7.8 nM.
Regarding FETE-TOGA [4b], the “Tumor radiotracer uptake at 60 min by imaging” value in the data set on AR42J tumor xenografts [3] is recorded as 6.11 ± 1.46 % ID/ml. For the same compound, the “Tumor radiotracer uptake after 60 min by γ-counting” value in the data set on AR42J tumor xenografts [4] is recorded as 4.50 ± 1.51 % ID/g. Further, in data set [5], the “Log D” value is on record as −1.50 and the “Log D of 18F-triazole” value is given as −1.5. Further, the 50% inhibitory concentration (IC50) on somatostatin receptor (setting [8]) was 2.9 ± 1.3 nM.
[Tyr^3]octreotate: the Biological half life in data set [6] is recorded as 1.5-2 hours.

For orientation: IC50 means the point on the concentration scale where inhibition reaches its midpoint. Usually Log D stands for lipophilicity at a set pH, counting ionised and neutral species. Read a low Log D as lower lipophilicity.
